From patent US7642269B2, “Pyrrolo[3,2-B]pyridine derivatives and processes for the preparation thereof” (Yuhan Corporation, priority 2005, dated 2010) come the findings set out here.

Each structure is given as a SMILES string. Where a name gives a salt, the structure may show the parent alone.

T1 sequence (P19156 2-1034 limits assumed): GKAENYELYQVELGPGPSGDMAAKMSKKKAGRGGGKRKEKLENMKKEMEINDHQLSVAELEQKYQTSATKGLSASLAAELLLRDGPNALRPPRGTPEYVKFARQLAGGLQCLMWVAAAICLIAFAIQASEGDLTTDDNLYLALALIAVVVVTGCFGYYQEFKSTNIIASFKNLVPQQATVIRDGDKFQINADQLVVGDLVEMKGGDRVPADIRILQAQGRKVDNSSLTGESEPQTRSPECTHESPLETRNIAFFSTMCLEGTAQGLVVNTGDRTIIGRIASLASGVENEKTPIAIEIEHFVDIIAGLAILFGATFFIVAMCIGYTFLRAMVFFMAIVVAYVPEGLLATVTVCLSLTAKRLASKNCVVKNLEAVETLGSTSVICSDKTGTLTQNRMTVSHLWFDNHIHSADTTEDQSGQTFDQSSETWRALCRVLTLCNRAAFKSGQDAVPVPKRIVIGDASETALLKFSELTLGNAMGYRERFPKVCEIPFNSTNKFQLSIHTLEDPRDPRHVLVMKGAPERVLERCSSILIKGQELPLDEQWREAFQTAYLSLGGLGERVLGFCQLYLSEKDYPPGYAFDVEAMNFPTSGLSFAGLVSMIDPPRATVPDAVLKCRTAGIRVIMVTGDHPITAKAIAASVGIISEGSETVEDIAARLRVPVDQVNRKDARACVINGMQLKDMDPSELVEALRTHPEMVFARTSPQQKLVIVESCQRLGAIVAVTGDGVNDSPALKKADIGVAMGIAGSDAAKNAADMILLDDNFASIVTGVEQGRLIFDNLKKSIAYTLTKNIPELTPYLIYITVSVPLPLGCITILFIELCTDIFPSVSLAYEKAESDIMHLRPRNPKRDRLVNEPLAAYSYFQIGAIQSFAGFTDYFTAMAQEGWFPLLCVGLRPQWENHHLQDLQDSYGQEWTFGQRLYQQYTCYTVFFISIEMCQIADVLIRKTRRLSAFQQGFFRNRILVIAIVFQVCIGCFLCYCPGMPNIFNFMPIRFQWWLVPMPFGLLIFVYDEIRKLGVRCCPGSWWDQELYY
T1 sequence (P18434 whole entry partner): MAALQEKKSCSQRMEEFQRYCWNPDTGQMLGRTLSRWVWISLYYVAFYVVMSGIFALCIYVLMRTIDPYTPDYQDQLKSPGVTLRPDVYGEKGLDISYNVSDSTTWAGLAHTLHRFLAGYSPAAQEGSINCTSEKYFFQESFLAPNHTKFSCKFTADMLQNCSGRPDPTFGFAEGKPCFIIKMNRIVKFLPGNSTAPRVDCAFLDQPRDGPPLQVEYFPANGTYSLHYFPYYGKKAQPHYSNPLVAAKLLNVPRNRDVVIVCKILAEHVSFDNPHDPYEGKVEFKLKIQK

The first assay addresses T1, H^+/K^+-ATPase (Sus scrofa, UniProt P19156).
T1 construct: used as an enzyme source of the in vitro enzyme reaction assay of proton pump; from tissue; host or cells: hog gastric fundic mucosa (membrane vesicles, lyophilized)
As to the kind of experiment: Inhibitory effects on proton pump (H^+/K^+-ATPase) activity, hog gastric vesicles. It counts as biochemical. The following applies: K^+ stimulated H^+/K^+-ATPase activity, hog gastric vesicle, Pi measured at 620 nm. The gist of the method: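 Lyophilized hog gastric vesicles in Pipes/Tris pH 6.1 were preincubated 5 min with compounds (1% DMSO), then run with ATP for 30 min at 37 °C. Released phosphate was measured by malachite green at 620 nm; K^+-stimulated activity taken as the difference between reactions with and without K^+.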
As to `C=CCn1c(C)c(C)c2nccc(OCc3ccc(Cl)cc3)c21.Cl` [Example 72, 1-allyl-7-(4-chlorobenzyloxy)-2,3-dimethyl-1H-pyrrolo[3,2-b]pyridine hydrochloride], the IC50 turned out to be 30 nM. In other words, the double-digit nanomolar range.
Consider `Cc1c(C)n(CC2CC2)c2c(OCc3ccc(Cl)cc3Cl)ccnc12.Cl` [Example 139, 1-cyclopropylmethyl-7-(2,4-dichlorobenzyloxy)-2,3-dimethyl-1H-pyrrolo[3,2-b]pyridine hydrochloride], for which the IC50 was 20 nM.
Molecule `Cc1c(C)n(CC2CCC2)c2c(OCc3ccc(F)cc3)ccnc12.Cl` [Example 55, 1-cyclobutylmethyl-7-(4-fluorobenzyloxy)-2,3-dimethyl-1H-pyrrolo[3,2-b]pyridine hydrochloride] had an IC50 of 70 nM.
In turn, `Cc1c(C)n(CC2CC2)c2c(OCc3ccc(Cl)cc3)ccnc12.Cl` [Example 97, 7-(4-chlorobenzyloxy)-1-cyclopropylmethyl-2,3-dimethyl-1H-pyrrolo[3,2-b]pyridine hydrochloride] displayed a 50% inhibitory concentration (IC50) of 90 nM.
Molecule `COCCn1c(C)c(C)c2nccc(OCc3ccc(Cl)cc3)c21.Cl` [Example 86, 7-(4-chlorobenzyloxy)-1-(2-methoxyethyl)-2,3-dimethyl-1H-pyrrolo[3,2-b]pyridine hydrochloride] displayed an IC50 of 50 nM.
Still for that read-out and setting: with `CCCn1c(C)c(C)c2nccc(OCc3ccc(F)cc3)c21.Cl` [Example 62, 7-(4-fluorobenzyloxy)-2,3-dimethyl-1-propyl-1H-pyrrolo[3,2-b]pyridine hydrochloride] the figure was 110 nM.
`COC(=O)Cn1c(C)c(C)c2nccc(OCc3ccc(Cl)cc3Cl)c21` [Example 138, 7-(2,4-dichlorobenzyloxy)-1-methoxycarbonylmethyl-2,3-dimethyl-1H-pyrrolo[3,2-b]pyridine hydrochloride] yielded an IC50 of 460 nM.
Consider `Cc1c(C)n(Cc2ccc(F)cc2)c2c(OCc3ccc4c(c3)OCO4)ccnc12` [Example 118, 7-(benzo[1,3]dioxol-5-ylmethoxy)-1-(4-fluorobenzyl)-2,3-dimethyl-1H-pyrrolo[3,2-b]pyridine hydrochloride], for which inhibition was half-maximal at 460 nM (IC50).
For the molecule `COCCn1c(C)c(C)c2nccc(OCc3ccc(F)cc3)c21` [Example 130, 7-(4-fluorobenzyloxy)-1-(2-methoxyethyl)-2,3-dimethyl-1H-pyrrolo[3,2-b]pyridine malonate], the IC50 was determined as 40 nM.
`Cc1c(C)n(Cc2ccccc2)c2c(N3CCc4ccccc4C3)ccnc12` [Example 6, 1-benzyl-7-(1,2,3,4-tetrahydroisoquinolin-2-yl)-2,3-dimethyl-1H-pyrrolo[3,2-b]pyridine hydrochloride] displayed an IC50 of 200 nM. Against the preceding molecule, the IC50 is about 5-fold higher.
Turning to `Cc1c(C)n(CC2OCCO2)c2c(OCc3ccc4c(c3)OCO4)ccnc12` [Example 100, 7-(benzo[1,3]dioxol-5-ylmethoxy)-1-([1,3]-dioxolan-2-ylmethyl)-2,3-dimethyl-1H-pyrrolo[3,2-b]pyridine hydrochloride], the IC50 worked out at 2820 nM.
Still for that read-out and setting: then `COCn1c(C)c(C)c2nccc(OCc3ccc(Cl)cc3Cl)c21` [Example 134, 7-(2,4-dichlorobenzyloxy)-1-methoxymethyl-2,3-dimethyl-1H-pyrrolo[3,2-b]pyridine hydrochloride], with 540 nM; and `Cc1c(C)n(CC(C)C)c2c(OCc3ccc4c(c3)OCO4)ccnc12` [Example 120, 7-(benzo[1,3]dioxol-5-ylmethoxy)-1-isobutyl-2,3-dimethyl-1H-pyrrolo[3,2-b]pyridine hydrochloride], with 120 nM; and `COc1cccc(Cn2c(C)c(C)c3nccc(OCc4cccc(C)c4)c32)c1` [Example 159, 1-(3-methoxybenzyl)-2,3-dimethyl-7-(3-methylbenzyloxy)-1H-pyrrolo[3,2-b]pyridine hydrochloride], with 880 nM.
With `CCCn1c(C)c(C)c2nccc(OCc3cc(F)cc(F)c3)c21` [Example 182, 7-(3,5-difluorobenzyloxy)-2,3-dimethyl-1-propyl-1H-pyrrolo[3,2-b]pyridine hydrochloride], half-maximal inhibition (IC50) was put at 3880 nM.
The molecule `Cc1c(C)n(CC2CC2)c2c(OCc3ccc4c(c3)OCO4)ccnc12` [Example 121, 7-(benzo[1,3]dioxol-5-ylmethoxy)-1-cyclopropylmethyl-2,3-dimethyl-1H-pyrrolo[3,2-b]pyridine hydrochloride] showed an IC50 of 320 nM.
The same measure, in the same setting: with `CCOc1ccccc1COc1ccnc2c(C)c(C)n(CC3CCC3)c12` [Example 163, 1-cyclobutylmethyl-7-(2-ethoxybenzyloxy)-2,3-dimethyl-1H-pyrrolo[3,2-b]pyridine hydrochloride] the figure was 1010 nM.
`Cc1ccc(Cn2c(C)c(C)c3nccc(OCc4ccc(F)cc4)c32)cc1` [Example 34, 7-(4-fluorobenzyloxy)-2,3-dimethyl-1-(4-methylbenzyl)-1H-pyrrolo[3,2-b]pyridine hydrochloride] registered a concentration for half-maximal inhibition (IC50) of 230 nM.
Consider `Cc1ccc(Cn2c(C)c(C)c3nccc(OCc4cccc(C)c4)c32)cc1` [Example 156, 2,3-dimethyl-1-(4-methylbenzyl)-7-(3-methylbenzyloxy)-1H-pyrrolo[3,2-b]pyridine hydrochloride], for which the IC50 stood at 610 nM.
On the same count and under the same terms, then `Cc1c(C)n(CC2OCCO2)c2c(N3CCc4ccccc4C3)ccnc12` [Example 3, 1-(1,3-dioxolan-2-ylmethyl)-7-(1,2,3,4-tetrahydroisoquinolin-2-yl)-2,3-dimethyl-1H-pyrrolo[3,2-b]pyridine hydrochloride], with 640 nM; and `CCCn1c(C)c(C)c2nccc(OCc3cccc(C)c3)c21` [Example 153, 2,3-dimethyl-7-(3-methylbenzyloxy)-1-propyl-1H-pyrrolo[3,2-b]pyridine hydrochloride], with 1030 nM.
`Cc1ccc(Cn2c(C)c(C)c3nccc(OCc4ccc(Cl)cc4)c32)cc1` [Example 96, 7-(4-chlorobenzyloxy)-1-(4-methylbenzyl)-2,3-dimethyl-1H-pyrrolo[3,2-b]pyridine hydrochloride]: 130 nM corresponded to half-maximal inhibition (IC50). This IC50 lies about 7.9-fold lower than the previous one.
Turning to `Cc1ccc(Cn2c(C)c(C)c3nccc(NCc4ccc(F)cc4)c32)cc1` [Example 263, N-[1-(4-methylbenzyl)-2,3-dimethyl-1H-pyrrolo[3,2-b]pyridin-7-yl]-4-fluorobenzylamine hydrochloride], the IC50 is 1450 nM.
`Cc1c(C)n(Cc2cccc(F)c2)c2c(OCc3ccc(F)cc3)ccnc12` [Example 40, 1-(3-fluorobenzyl)-7-(4-fluorobenzyloxy)-2,3-dimethyl-1H-pyrrolo[3,2-b]pyridine hydrochloride] registered an IC50 of 190 nM.
For the molecule `Cc1c(C)n(Cc2ccc(F)cc2)c2c(OCc3ccc(Br)cc3)ccnc12` [Example 221, 7-(4-bromobenzyloxy)-1-(4-fluorobenzyl)-2,3-dimethyl-1H-pyrrolo[3,2-b]pyridine hydrochloride], the midpoint of inhibition, the IC50, lay at 180 nM.
The same measure, in the same setting: with `CCn1c(C)c(C)c2nccc(OCc3ccc4c(c3)OCO4)c21` [Example 117, 7-(benzo[1,3]dioxol-5-ylmethoxy)-1-ethyl-2,3-dimethyl-1H-pyrrolo[3,2-b]pyridine hydrochloride] the figure was 720 nM.
The same measure, in the same setting: with `C=CCn1c(C)c(C)c2nccc(NCc3ccc(F)cc3)c21` [Example 254, N-(1-allyl-2,3-dimethyl-1H-pyrrolo[3,2-b]pyridin-7-yl)-4-fluorobenzylamine hydrochloride] the figure was 210 nM; with `COc1cccc(Cn2c(C)c(C)c3nccc(OCc4ccc(Cl)cc4Cl)c32)c1` [Example 141, 7-(2,4-dichlorobenzyloxy)-1-(3-methoxybenzyl)-2,3-dimethyl-1H-pyrrolo[3,2-b]pyridine hydrochloride], 90 nM.
In turn, `COCCn1c(C)c(C)c2nccc(OCc3ccc(F)cc3)c21` [Example 132, 7-(4-fluorobenzyloxy)-1-(2-methoxyethyl)-2,3-dimethyl-1H-pyrrolo[3,2-b]pyridine oxalate] came in with an IC50 of 50 nM.
With `Cc1cccc(Cn2c(C)c(C)c3nccc(OCc4ccc(Br)cc4)c32)c1` [Example 223, 7-(4-bromobenzyloxy)-2,3-dimethyl-1-(3-methylbenzyl)-1H-pyrrolo[3,2-b]pyridine hydrochloride], it took 1210 nM to reach half-maximal inhibition (IC50).
On to `C=CCn1c(C)c(C)c2nccc(OCc3ccccc3OCC)c21` [Example 164, 1-allyl-7-(2-ethoxybenzyloxy)-2,3-dimethyl-1H-pyrrolo[3,2-b]pyridine hydrochloride], for which the IC50 turned out to be 3000 nM.
As for `Cc1c(C)n(Cc2ccc3ccccc3c2)c2c(N3CCc4ccccc4C3)ccnc12` [Example 2, 1-(2-naphthylmethyl)-7-(1,2,3,4-tetrahydroisoquinolin-2-yl)-2,3-dimethyl-1H-pyrrolo[3,2-b]pyridine hydrochloride], half-maximal inhibition (IC50) required 1060 nM. Compared with the last molecule, the IC50 is about 2.8-fold lower.

In a further assay the test system is basal gastric acid secretion. As to the kind of experiment: Inhibitory effects on basal gastric acid secretion in pylorus-ligated rats (Shay's rat model). It counts as in vivo, Sprague Dawley (SD) rats. The following applies: oral, one hour before pylorus ligation, total acid output 5 hours after ligation, male SD rats. On the procedure: Inhibitory effects of the compounds of the present invention on basal gastric acid secretion were performed according to Shay's rat model (Shay, H., et al., 1945, gastroenterology, 5, 43-61). Male Sprague Dawley (SD) rats (200±10 g body weight) were divided into 3 groups (n=5) and fasted for 24 hours with free access to water. Control group was orally administered with 0.5% methylcellulose alone and the other groups were orally administered with test compounds suspended in 0.5% methyl-cellulose solution at doses of 1, 3 and 10 mg/kg/5 ml one hour before pylorus ligation. Under ether anesthesia, the abdomens of the rats were incised and then the pylorus was ligated. 5 hours after ligation, the animals were sacrificed, and the gastric contents were collected. The collected contents were centrifuged at 1,000×g for 10 minutes to obtain the gastric juice. Total acid output was measured by 0.01N NaOH volume (ueq/ml) for automatic titration of the gastric juice to pH 7.0 and the ED50s of test compounds were calculated using the Litchfield-Wilcoxon method. % inhibitory activity was calculated from the following equation and the results are shown in Table 2. % inhibitory activity of test compound=(total acid output of control group−total acid output of the group treated with test compounds)/total acid output of control group X 100
In turn, `C=CCn1c(C)c(C)c2nccc(OCc3ccc(Cl)cc3)c21.Cl` [Example 72, 1-allyl-7-(4-chlorobenzyloxy)-2,3-dimethyl-1H-pyrrolo[3,2-b]pyridine hydrochloride] had an ED50 of 2 mg/kg.
The molecule `Cc1c(C)n(CC2CC2)c2c(OCc3ccc(Cl)cc3Cl)ccnc12.Cl` [Example 139, 1-cyclopropylmethyl-7-(2,4-dichlorobenzyloxy)-2,3-dimethyl-1H-pyrrolo[3,2-b]pyridine hydrochloride] gave an ED50 of 1.6 mg/kg. This ED50 and that of the molecule before are within 1.5-fold of each other.
Same read-out and setting: with `Cc1c(C)n(CC2CCC2)c2c(OCc3ccc(F)cc3)ccnc12.Cl` [Example 55, 1-cyclobutylmethyl-7-(4-fluorobenzyloxy)-2,3-dimethyl-1H-pyrrolo[3,2-b]pyridine hydrochloride] the figure was 1.3 mg/kg.
The molecule `Cc1c(C)n(CC2CC2)c2c(OCc3ccc(Cl)cc3)ccnc12.Cl` [Example 97, 7-(4-chlorobenzyloxy)-1-cyclopropylmethyl-2,3-dimethyl-1H-pyrrolo[3,2-b]pyridine hydrochloride] yielded an ED50 of 2 mg/kg.
`COCCn1c(C)c(C)c2nccc(OCc3ccc(Cl)cc3)c21.Cl` [Example 86, 7-(4-chlorobenzyloxy)-1-(2-methoxyethyl)-2,3-dimethyl-1H-pyrrolo[3,2-b]pyridine hydrochloride] gave an ED50 of 1.1 mg/kg.
Consider `CCCn1c(C)c(C)c2nccc(OCc3ccc(F)cc3)c21.Cl` [Example 62, 7-(4-fluorobenzyloxy)-2,3-dimethyl-1-propyl-1H-pyrrolo[3,2-b]pyridine hydrochloride], for which it took a dose of 1.6 mg/kg to reach the 50% effect level (ED50). The ED50 values of the last two molecules are within 1.5-fold of each other.
